According to ChEMBL document CHEMBL4513149, “CO-ADD screening of MMV (CH) - MMV compounds” (2021):
Converted amounts (≈) assume the structure as drawn. Structures can show the parent of a compound that is named as a salt.

Experiments:
Staphylococcus aureus = test: microbe, parasite or virus in culture; conditions: ATCC 43300, 18 h, ASSAY_TEST Inhibition of Bacterial Growth, detection method Absorption (OD600), MEDIA CAMHB, plate type 384well, NBS, CORNING #3640
Description: Antibacterial activity against Staphylococcus aureus MRSA ATCC 43300 (CO-ADD:GP_020); MIC in CAMBH media, using NBS plates, by OD(600)

HEK293 = test: cells; assay type: functional; conditions: Homo sapiens, ATCC CRL1573, HEK293; ASSAY_TEST Inhibition of Cell Viability; detection method Resazurin; Fluorescence (ex560/em590); MEDIA DMEM with 10% FBS; plate type 384well; TC; CORNING #3712; time 18 hr
Escherichia coli = test: microbe, parasite or virus in culture; conditions: ATCC 25922, 18 h, ASSAY_TEST Inhibition of Bacterial Growth, detection method Absorption (OD600), MEDIA CAMHB, plate type 384well, NBS, CORNING #3640
Description: Antibacterial activity against Escherichia coli ATCC 25922 (CO-ADD:GN_001); MIC in CAMBH media using NBS plates, by OD(600)

Candida albicans = test: microbe, parasite or virus in culture; conditions: ATCC 90028, ASSAY_TEST Inhibition of Fungal Growth, detection method Absorption (OD530), plate type 384well, NBS, CORNING #3640
Description: Antifungal activity against Candida albicans ATCC 90028 (CO-ADD:FG_001); MIC in YNB media using NBS plates, by OD630

Acinetobacter baumannii = test: microbe, parasite or virus in culture; conditions: ATCC 19606, 18 h, ASSAY_TEST Inhibition of Bacterial Growth, detection method Absorption (OD600), MEDIA CAMHB, plate type 384well, NBS, CORNING #3640
Description: Antibacterial activity against Acinetobacter baumannii ATCC 19606 (CO-ADD:GN_034); MIC in CAMBH media using NBS plates, by OD600

Pseudomonas aeruginosa = test: microbe, parasite or virus in culture; conditions: ATCC 27853, 18 h, ASSAY_TEST Inhibition of Bacterial Growth, detection method Absorption (OD600), MEDIA CAMHB, plate type 384well, NBS, CORNING #3640
Description: Antibacterial activity against Pseudomonas aeruginosa ATCC 27853 (CO-ADD:GN_042); MIC in CAMBH media using NBS plates, by OD(600)

Klebsiella pneumoniae = test: microbe, parasite or virus in culture; conditions: ATCC 700603, 18 h, ASSAY_TEST Inhibition of Bacterial Growth, detection method Absorption (OD600), MEDIA CAMHB, plate type 384well, NBS, CORNING #3640
Description: Antibacterial activity against Klebsiella pneumoniae MDR ATCC 70063 (CO-ADD:GN_003); MIC in CAMBH media using NBS plates, by OD(600)

Description for Cryptococcus neoformans: Antifungal activity against Cryptococcus neoformans H99 ATCC 208821 (CO-ADD:FG_002); MIC in YNB media using NBS plates, by Resazurin OD(600-570)

Row | SMILES | MIC (Staphylococcus aureus) | MIC (Cryptococcus neoformans) | MIC (Escherichia coli) | MIC (Candida albicans) | MIC (Acinetobacter baumannii) | MIC (Pseudomonas aeruginosa) | MIC (Klebsiella pneumoniae) | CC50 (HEK293)
1 | Cn1c(=O)c2c(S(C)(=O)=O)snc2n(C)c1=O | > 10 µM | > 10 µM | > 10 µM | > 10 µM | > 10 µM | > 10 µM | > 10 µM | 9.72 µM
2 | CCCn1c(NC(=O)c2ccc3ccccc3n2)nc2ccccc21 | > 10 µM | > 10 µM | > 10 µM | > 10 µM | > 10 µM | > 10 µM | > 10 µM | > 10 µM
3 | O=C(Nc1cccnc1)c1c(O)c2cccc3c2n(c1=O)CC3 | > 10 µM | > 10 µM | > 10 µM | > 10 µM | > 10 µM | > 10 µM | > 10 µM | > 10 µM
4 | O=C(c1ccco1)N(CCCn1ccnc1)c1nc2c(Cl)cccc2s1 | > 10 µM | > 10 µM | > 10 µM | > 10 µM | > 10 µM | > 10 µM | > 10 µM | > 10 µM
5 | CC(=O)NC[C@@H]1CN(c2ccc(N3CCOCC3)c(F)c2)C(=O)O1 | 2.5 µM (≈ 0.843 µg/mL) | > 10 µM | > 10 µM | > 10 µM | > 10 µM | > 10 µM | > 10 µM | > 10 µM
6 | O=C1O[C@@H](COc2ccon2)CN1c1cc(F)c(C2=CCN(Cc3ccccc3)CC2)c(F)c1 | > 10 µM | > 10 µM | > 10 µM | > 10 µM | > 10 µM | > 10 µM | > 10 µM | > 10 µM
7 | CO/C=C(/C(=O)OC)c1ccccc1Oc1cc(Oc2ccccc2C#N)ncn1 [AZOXYSTROBIN] | > 10 µM | > 10 µM | > 10 µM | 0.625 µM (≈ 0.252 µg/mL) | > 10 µM | > 10 µM | > 10 µM | > 10 µM
8 | O=C(Nc1ccc2c(c1)B(O)OC2)c1ccccc1C(F)(F)F | > 10 µM | > 10 µM | > 10 µM | > 10 µM | > 10 µM | > 10 µM | > 10 µM | > 10 µM
9 | NCCN(C(=O)c1ccc(Cl)cc1Cl)c1ccc(OCc2ccc(Cl)cc2)cc1 | 10 µM (≈ 4.5 µg/mL) | > 10 µM | > 10 µM | > 10 µM | > 10 µM | > 10 µM | > 10 µM | > 10 µM
10 | C[C@H]1c2cccc(O)c2C(=O)C2=C(O)[C@]3(O)C(=O)C(C(N)=O)=C(O)[C@@H](N(C)C)[C@@H]3[C@@H](O)[C@@H]21 [DOXYCYCLINE HYDROCHLORIDE] | 0.156 µM | > 10 µM | 1.25 µM | > 10 µM | > 10 µM | 0.156 µM | > 10 µM | > 10 µM
11 | O=C(COc1cccc(F)c1)Nc1nc(-c2ccccn2)cs1 | > 10 µM | > 10 µM | > 10 µM | > 10 µM | > 10 µM | > 10 µM | > 10 µM | > 10 µM
12 | C[C@@H]1[C@H](O)[C@@H](C)/C=C/C=C/C=C/C=C/C=C/C=C/C=C/[C@H](O[C@@H]2O[C@H](C)[C@@H](O)[C@H](N)[C@@H]2O)C[C@@H]2O[C@](O)(C[C@@H](O)C[C@@H](O)[C@H](O)CC[C@@H](O)C[C@@H](O)CC(=O)O[C@H]1C)C[C@H](O)[C@H]2C(=O)O [AMPHOTERICIN B] | > 10 µM | > 10 µM | > 10 µM | > 10 µM | > 10 µM | > 10 µM | > 10 µM | > 10 µM
13 | COc1cccc(-n2nnnc2S(C)(=O)=O)c1 | > 10 µM | > 10 µM | > 10 µM | > 10 µM | > 10 µM | > 10 µM | > 10 µM | 2.96 µM
14 | CCc1c(C)nc(-n2nc(C)cc2NC(=O)c2ccccc2SC)[nH]c1=O | > 10 µM | > 10 µM | > 10 µM | > 10 µM | > 10 µM | > 10 µM | > 10 µM | > 10 µM
15 | O=C(Nc1ccc(C(F)(F)F)c(C(F)(F)F)c1)c1cc(Cl)ccc1O | > 10 µM | > 10 µM | > 10 µM | > 10 µM | > 10 µM | > 10 µM | > 10 µM | > 10 µM
16 | CC[C@@H]([C@H](C)O)n1ncn(-c2ccc(N3CCN(c4ccc(OC[C@@H]5CO[C@@](Cn6cncn6)(c6ccc(F)cc6F)C5)cc4)CC3)cc2)c1=O [POSACONAZOLE] | > 10 µM | 1.25 µM (≈ 0.876 µg/mL) | > 10 µM | 0.156 µM (≈ 0.11 µg/mL) | > 10 µM | > 10 µM | > 10 µM | > 10 µM

Second part, led by results:

Row | MIC (Staphylococcus aureus) | MIC (Cryptococcus neoformans) | MIC (Escherichia coli) | MIC (Candida albicans) | MIC (Acinetobacter baumannii) | MIC (Pseudomonas aeruginosa) | MIC (Klebsiella pneumoniae) | SMILES | CC50 (HEK293)
17 | > 10 µM | > 10 µM | > 10 µM | > 10 µM | > 10 µM | > 10 µM | > 10 µM | CC(=O)N1CCN(c2ccc(Oc3ccc(Cl)cc3O)cc2)CC1 | > 10 µM
18 | 1.25 µM (≈ 0.531 µg/mL) | > 10 µM | > 10 µM | > 10 µM | > 10 µM | > 10 µM | > 10 µM | COc1ccc2nccc(NC(=O)C3CCN(CCc4ccc(Cl)cc4)CC3)c2n1 | > 10 µM
19 | 10 µM (≈ 4.38 µg/mL) | > 10 µM | > 10 µM | > 10 µM | > 10 µM | > 10 µM | > 10 µM | CC(=O)NCC1CN(c2ccc(-c3ccc(CNCc4cn[nH]n4)cc3)c(F)c2)C(=O)O1 (stereo not drawn) | > 10 µM
20 | 10 µM (≈ 3.64 µg/mL) | > 10 µM | > 10 µM | > 10 µM | > 10 µM | > 10 µM | > 10 µM | CC(c1cc(Cl)cc(Cl)c1)N(C)c1ncc2c(N)nc(N)nc2n1 (stereo not drawn) | > 10 µM
21 | > 10 µM | > 10 µM | > 10 µM | > 10 µM | > 10 µM | > 10 µM | > 10 µM | COc1cc(C2=NCCN2)cc2cc(-c3ccc(C4=NCCN4)cc3)oc12 | > 10 µM
22 | > 10 µM | > 10 µM | > 10 µM | > 10 µM | > 10 µM | > 10 µM | > 10 µM | Cc1ccc2c(c1C)NC(=O)C21NN=C(c2ccccc2)S1 (stereo not drawn) | > 10 µM
23 | > 10 µM | > 10 µM | > 10 µM | > 10 µM | > 10 µM | > 10 µM | > 10 µM | Cc1cc(NC(=O)c2ccc(Oc3ccc(Cl)cc3O)o2)no1 | > 10 µM
24 | 1.25 µM (≈ 0.504 µg/mL) | 1.25 µM (≈ 0.504 µg/mL) | 5 µM (≈ 2.02 µg/mL) | 2.5 µM (≈ 1.01 µg/mL) | 5 µM (≈ 2.02 µg/mL) | 10 µM (≈ 4.03 µg/mL) | 10 µM (≈ 4.03 µg/mL) | N=C(N)Nc1ccc(-c2ccc(-c3ccc(NC(=N)N)cc3Cl)o2)c(Cl)c1 | > 10 µM
25 | > 10 µM | > 10 µM | > 10 µM | > 10 µM | > 10 µM | > 10 µM | > 10 µM | CN1CCN(CCCOc2ncc(Nc3ncc(-c4ccc(C(F)(F)F)c(F)c4)nc3C(N)=O)cn2)CC1 | > 10 µM
26 | > 10 µM | > 10 µM | > 10 µM | > 10 µM | > 10 µM | > 10 µM | > 10 µM | Brc1cncc(-c2cc(NCCCn3ccnc3)nc(-c3ccccc3)n2)c1 | > 10 µM
27 | > 10 µM | > 10 µM | > 10 µM | > 10 µM | > 10 µM | > 10 µM | > 10 µM | Cc1nn2c(=O)c3c([nH]c2c1-c1ccc(Cl)cc1)CCCC3 | > 10 µM
28 | > 10 µM | > 10 µM | > 10 µM | > 10 µM | > 10 µM | > 10 µM | > 10 µM | O=C(Nc1ccccc1)c1ccc(-c2cc3ccncc3cc2OC2CCNCC2)s1 | > 10 µM
29 | 10 µM (≈ 4.03 µg/mL) | > 10 µM | > 10 µM | > 10 µM | > 10 µM | > 10 µM | > 10 µM | N=C(N)Nc1ccc(-c2ccc(-c3ccc(N=C(N)N)c(Cl)c3)o2)cc1Cl | > 10 µM
30 | 0.625 µM (≈ 0.225 µg/mL) | > 10 µM | 2.5 µM (≈ 0.9 µg/mL) | > 10 µM | > 10 µM | 2.5 µM (≈ 0.9 µg/mL) | 10 µM (≈ 3.6 µg/mL) | COc1ccc(OC)c(NCc2ccc3nc(N)nc(N)c3c2Cl)c1 | > 10 µM
31 | > 10 µM | > 10 µM | > 10 µM | > 10 µM | > 10 µM | > 10 µM | > 10 µM | c1cncc(NCc2ccc(-c3cc4ccncc4cc3OC3CCNCC3)s2)c1 | > 10 µM
